≈ marks a conversion by molar mass, not a printed value. Some results are limits rather than exact numbers.

One may read the IC50 as the concentration that gives 50% inhibition.

Test [1] is filed under the species Homo sapiens. The test is described as follows: Selectivity ratio of IC50 for human recombinant CYP1A1 to IC50 for human recombinant CYP1B1.
The species named for test [2] is Homo sapiens. The test is described as follows: Selectivity ratio of IC50 for human recombinant CYP1A2 to IC50 for human recombinant CYP1B1.
The next test concerns the target T1, Cytochrome P450 1B1 (Homo sapiens, UniProt Q16678).
T1 sequence (Q16678 whole entry): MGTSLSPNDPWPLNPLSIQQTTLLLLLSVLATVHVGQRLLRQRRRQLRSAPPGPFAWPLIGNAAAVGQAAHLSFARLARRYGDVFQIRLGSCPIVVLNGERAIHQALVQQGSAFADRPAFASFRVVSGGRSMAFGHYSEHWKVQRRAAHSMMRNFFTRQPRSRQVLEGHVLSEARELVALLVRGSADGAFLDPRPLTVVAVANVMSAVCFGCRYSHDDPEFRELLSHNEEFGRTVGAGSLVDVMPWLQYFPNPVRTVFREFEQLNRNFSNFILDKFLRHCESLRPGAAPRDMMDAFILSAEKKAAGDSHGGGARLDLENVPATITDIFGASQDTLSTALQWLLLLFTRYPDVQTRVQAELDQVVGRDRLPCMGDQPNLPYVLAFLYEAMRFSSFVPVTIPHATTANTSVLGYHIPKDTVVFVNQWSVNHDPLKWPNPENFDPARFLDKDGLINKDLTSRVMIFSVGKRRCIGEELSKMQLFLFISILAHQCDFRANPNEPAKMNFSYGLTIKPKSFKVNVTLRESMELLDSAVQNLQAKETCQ
Description: Inhibition of human recombinant CYP1B1 after 15 mins by 7-ethoxyresorufin-O-deethylation-based spectrofluorimetry.

Another test deals with T2, Cytochrome P450 1A2 (Homo sapiens, UniProt P05177).
T2 sequence (P05177 whole entry): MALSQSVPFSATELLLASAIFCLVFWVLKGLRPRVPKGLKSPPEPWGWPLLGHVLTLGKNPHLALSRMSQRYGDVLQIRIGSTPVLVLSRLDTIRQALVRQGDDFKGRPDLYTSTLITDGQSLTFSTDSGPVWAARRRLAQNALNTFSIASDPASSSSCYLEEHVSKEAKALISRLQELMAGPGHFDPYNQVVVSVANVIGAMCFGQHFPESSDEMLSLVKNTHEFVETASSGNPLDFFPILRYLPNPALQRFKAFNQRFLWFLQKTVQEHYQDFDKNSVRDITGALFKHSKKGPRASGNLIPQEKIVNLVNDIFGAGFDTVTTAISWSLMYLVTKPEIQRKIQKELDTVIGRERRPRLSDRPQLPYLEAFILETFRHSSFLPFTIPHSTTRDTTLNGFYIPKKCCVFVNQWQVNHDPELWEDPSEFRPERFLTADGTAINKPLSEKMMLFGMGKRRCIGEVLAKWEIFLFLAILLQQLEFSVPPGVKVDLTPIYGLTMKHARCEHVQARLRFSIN
The test is described as follows: Inhibition of human recombinant CYP1A2 after 15 mins by 7-ethoxyresorufin-O-deethylation-based spectrofluorimetry.

In another test the target is T3, Cytochrome P450 1A1 (Homo sapiens, UniProt P04798).
T3 sequence (P04798 whole entry): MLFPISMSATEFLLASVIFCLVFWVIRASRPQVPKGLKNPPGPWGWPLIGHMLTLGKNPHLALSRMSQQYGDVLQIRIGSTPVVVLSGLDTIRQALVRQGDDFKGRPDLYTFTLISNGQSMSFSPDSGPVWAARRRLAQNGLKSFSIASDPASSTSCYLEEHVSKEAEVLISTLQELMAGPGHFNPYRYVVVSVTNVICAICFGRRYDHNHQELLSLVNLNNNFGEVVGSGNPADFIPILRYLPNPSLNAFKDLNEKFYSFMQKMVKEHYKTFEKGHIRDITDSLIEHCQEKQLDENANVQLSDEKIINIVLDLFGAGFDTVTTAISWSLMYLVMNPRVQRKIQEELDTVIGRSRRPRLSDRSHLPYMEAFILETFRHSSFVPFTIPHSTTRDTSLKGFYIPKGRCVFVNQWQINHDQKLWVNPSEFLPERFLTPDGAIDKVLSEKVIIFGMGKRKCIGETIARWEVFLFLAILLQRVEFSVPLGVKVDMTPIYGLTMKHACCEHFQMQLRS
Description: Inhibition of human recombinant CYP1A1 after 15 mins by 7-ethoxyresorufin-O-deethylation-based spectrofluorimetry.

The test system of another test is Col2. The test is described as follows: Cytotoxicity against human Col2 cells. It counts as functional, cell-based.

For the molecule `COc1cc(OC)c(/C=C/c2ccc(OC)c(OC)c2)c(OC)c1`, the values for the Ratio IC50 in the test filed under Homo sapiens [1] and in the test filed under Homo sapiens [2] were 0.9 and greater than 333, respectively. The values for the IC50 on Cytochrome P450 1B1, on Cytochrome P450 1A2 and at Cytochrome P450 1A1 were 0.3 µM, greater than 100 µM and 0.27 µM, respectively.

For `COc1ccc(OC)c(/C=C/c2ccc(OC)c(OC)c2)c1`, the results for the Ratio IC50 in the test listed under Homo sapiens [1] and in the test filed under Homo sapiens [2] were 0.8 and greater than 160, respectively. The IC50 was 0.62 µM at Cytochrome P450 1B1, greater than 100 µM on Cytochrome P450 1A2 and 0.5 µM on Cytochrome P450 1A1.

As to `COc1ccc(/C=C/c2cc(O)cc(O)c2)cc1` [RESVERATROL 4'-METHYL ETHER], the IC50 at Cytochrome P450 1B1 is 0.8 µM.

Regarding `COc1cc(OC)c(OC)cc1/C=C/c1ccc(OC)c(OC)c1`, the Ratio IC50 in the test listed under Homo sapiens [1] is 0.4; in the test filed under Homo sapiens [2], greater than 22.5. In addition, the IC50 is 4.44 µM at Cytochrome P450 1B1, greater than 100 µM at Cytochrome P450 1A2 and 1.78 µM at Cytochrome P450 1A1.

As for `COc1cc(/C=C/c2ccc(OC)cc2OC)cc(OC)c1`, in the test on Col2, the IC50 was 0.8 mg/L (≈ 2.66 µM).

Take `COc1cc(/C=C/c2ccc(O)cc2)cc(OC)c1` [PTEROSTILBENE]: on Cytochrome P450 1B1, the IC50 was 1.4 µM.

In the case of `COc1ccc(/C=C/c2c(OC)cccc2OC)cc1OC`, the Ratio IC50 in the test filed under Homo sapiens [1] came out at 0.74; in the test filed under Homo sapiens [2], 7.5. Moreover, the IC50 on Cytochrome P450 1B1 is 0.31 µM; on Cytochrome P450 1A2, 2.31 µM; at Cytochrome P450 1A1, 0.23 µM.

As for `COc1ccc(/C=C/c2ccc(OC)c(OC)c2OC)cc1OC`, the Ratio IC50 in the test listed under Homo sapiens [1] is 1.2; in the test filed under Homo sapiens [2] it was greater than 24. Also, the figures for the IC50 at Cytochrome P450 1B1, on Cytochrome P450 1A2 and on Cytochrome P450 1A1 were 4.17 µM, greater than 100 µM and 5.18 µM, respectively.

For `COc1ccc(/C=C/c2ccccc2)cc1OC`, the Ratio IC50 in the test listed under Homo sapiens [1] was 1.5; in the test filed under Homo sapiens [2], 20.1. In addition, the IC50 at Cytochrome P450 1B1 was 0.3 µM; at Cytochrome P450 1A2, 6.04 µM; on Cytochrome P450 1A1 it was 0.44 µM.

As to `COc1ccc(/C=C/c2ccc(OC)c(OC)c2)c(OC)c1`, the Ratio IC50 was 2.4 in the test listed under Homo sapiens [1] and greater than 480 in the test listed under Homo sapiens [2]. Besides, the results for the IC50 on Cytochrome P450 1B1, at Cytochrome P450 1A2 and on Cytochrome P450 1A1 were 0.21 µM, greater than 100 µM and 0.51 µM, respectively.

As for `COc1cc(O)cc(/C=C/c2ccc(O)cc2)c1`, on Cytochrome P450 1B1, the IC50 is 2.1 µM.

With `COc1ccc(/C=C/c2cccc(OC)c2OC)cc1OC`, the Ratio IC50 in the test filed under Homo sapiens [1] came to 1.2; in the test listed under Homo sapiens [2] it was 43.3. The IC50 at Cytochrome P450 1B1 worked out at 0.37 µM; on Cytochrome P450 1A2, 16 µM; on Cytochrome P450 1A1, 0.45 µM.

For the molecule `COc1ccccc1/C=C/c1ccc(OC)c(OC)c1`, the Ratio IC50 in the test listed under Homo sapiens [1] was 90; in the test listed under Homo sapiens [2], 830. The IC50 at Cytochrome P450 1B1 came out at 0.004 µM; at Cytochrome P450 1A2, 3.32 µM; at Cytochrome P450 1A1, 0.36 µM.

Source of the values: ChEMBL document CHEMBL3132833, “3,4,2-Trimethoxy-trans-stilbene a potent CYP1B1 inhibitor” (Medchemcomm, 2014).
